Columns and labels:
Details in all cases: binder
MAP2K4 = biological target: T1, MAP2K4 (Homo sapiens, UniProt P45985)
T1 sequence (P45985 1-399): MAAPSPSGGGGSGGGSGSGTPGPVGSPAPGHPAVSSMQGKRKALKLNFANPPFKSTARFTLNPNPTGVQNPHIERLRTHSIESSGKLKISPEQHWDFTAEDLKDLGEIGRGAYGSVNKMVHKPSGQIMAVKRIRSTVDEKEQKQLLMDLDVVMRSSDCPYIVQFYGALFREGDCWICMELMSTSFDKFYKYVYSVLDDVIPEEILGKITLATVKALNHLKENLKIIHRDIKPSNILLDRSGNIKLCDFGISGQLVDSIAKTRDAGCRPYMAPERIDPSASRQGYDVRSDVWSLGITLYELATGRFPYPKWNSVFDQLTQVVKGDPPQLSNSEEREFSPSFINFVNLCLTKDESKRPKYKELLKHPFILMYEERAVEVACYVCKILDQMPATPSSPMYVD

PIM1 = PIM1 (Homo sapiens, UniProt P11309)
PIM1, sequence (P11309 whole entry): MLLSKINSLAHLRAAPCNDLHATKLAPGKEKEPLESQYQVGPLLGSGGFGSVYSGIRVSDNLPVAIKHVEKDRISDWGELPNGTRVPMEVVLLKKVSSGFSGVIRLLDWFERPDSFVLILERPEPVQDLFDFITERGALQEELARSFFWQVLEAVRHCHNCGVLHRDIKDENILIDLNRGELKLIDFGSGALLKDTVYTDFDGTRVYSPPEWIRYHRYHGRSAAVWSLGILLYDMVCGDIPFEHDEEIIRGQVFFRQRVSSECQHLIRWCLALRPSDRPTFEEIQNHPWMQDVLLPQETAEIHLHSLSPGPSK

FLT1 = FLT1 (Homo sapiens, UniProt P17948)
FLT1, sequence (P17948 whole entry): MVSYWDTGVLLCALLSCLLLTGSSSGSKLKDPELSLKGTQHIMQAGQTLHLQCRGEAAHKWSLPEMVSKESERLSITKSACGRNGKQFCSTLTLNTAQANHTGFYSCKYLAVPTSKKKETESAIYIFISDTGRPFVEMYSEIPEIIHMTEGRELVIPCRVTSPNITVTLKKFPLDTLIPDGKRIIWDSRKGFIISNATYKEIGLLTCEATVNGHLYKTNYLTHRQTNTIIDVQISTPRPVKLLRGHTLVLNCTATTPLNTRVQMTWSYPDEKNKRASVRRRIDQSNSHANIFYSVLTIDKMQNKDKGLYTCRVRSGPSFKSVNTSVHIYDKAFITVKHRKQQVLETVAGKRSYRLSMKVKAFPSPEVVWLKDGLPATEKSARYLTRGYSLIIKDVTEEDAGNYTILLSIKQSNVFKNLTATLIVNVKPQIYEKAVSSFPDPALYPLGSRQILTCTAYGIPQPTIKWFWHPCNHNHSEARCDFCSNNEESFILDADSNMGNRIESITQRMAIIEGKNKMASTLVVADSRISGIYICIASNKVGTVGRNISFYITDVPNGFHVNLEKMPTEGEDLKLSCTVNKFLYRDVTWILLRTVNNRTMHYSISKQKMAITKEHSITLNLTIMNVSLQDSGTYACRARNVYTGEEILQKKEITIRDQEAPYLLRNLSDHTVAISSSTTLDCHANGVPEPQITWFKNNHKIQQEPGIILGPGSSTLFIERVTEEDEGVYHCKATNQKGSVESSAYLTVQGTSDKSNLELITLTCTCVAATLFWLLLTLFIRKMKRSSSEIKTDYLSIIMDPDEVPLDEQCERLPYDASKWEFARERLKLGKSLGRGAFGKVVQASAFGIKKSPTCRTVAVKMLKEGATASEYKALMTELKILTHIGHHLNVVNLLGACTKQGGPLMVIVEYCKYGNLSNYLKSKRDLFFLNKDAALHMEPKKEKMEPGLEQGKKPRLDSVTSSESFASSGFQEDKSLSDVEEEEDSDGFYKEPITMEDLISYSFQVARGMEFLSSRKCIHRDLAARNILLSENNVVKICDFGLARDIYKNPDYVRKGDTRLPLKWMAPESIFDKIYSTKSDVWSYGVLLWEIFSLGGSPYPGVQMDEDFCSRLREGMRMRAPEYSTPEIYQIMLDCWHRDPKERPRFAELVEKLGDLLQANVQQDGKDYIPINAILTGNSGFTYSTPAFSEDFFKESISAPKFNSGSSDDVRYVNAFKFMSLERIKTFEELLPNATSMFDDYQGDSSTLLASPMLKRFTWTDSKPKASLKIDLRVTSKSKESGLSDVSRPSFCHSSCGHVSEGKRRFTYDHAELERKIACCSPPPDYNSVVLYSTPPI

BRD4 = BRD4 (Homo sapiens, UniProt O60885)
CHK2 = CHK2 (Homo sapiens, UniProt O96017)
CHK2, sequence (O96017 whole entry): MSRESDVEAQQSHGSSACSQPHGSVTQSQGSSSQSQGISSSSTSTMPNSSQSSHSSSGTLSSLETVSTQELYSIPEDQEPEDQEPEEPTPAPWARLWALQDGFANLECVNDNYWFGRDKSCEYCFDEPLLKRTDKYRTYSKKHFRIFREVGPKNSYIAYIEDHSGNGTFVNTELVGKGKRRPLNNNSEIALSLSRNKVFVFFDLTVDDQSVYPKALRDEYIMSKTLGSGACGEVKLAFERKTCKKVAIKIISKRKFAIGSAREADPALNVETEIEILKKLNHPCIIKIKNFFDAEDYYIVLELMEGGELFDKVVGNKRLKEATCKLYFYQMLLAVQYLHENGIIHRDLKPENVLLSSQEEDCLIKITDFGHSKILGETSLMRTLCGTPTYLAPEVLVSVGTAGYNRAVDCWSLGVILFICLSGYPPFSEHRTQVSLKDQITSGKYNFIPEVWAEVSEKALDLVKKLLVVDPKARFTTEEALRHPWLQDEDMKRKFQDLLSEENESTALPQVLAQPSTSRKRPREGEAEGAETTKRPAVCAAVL

BMX = biological target: T2, BMX (Homo sapiens, UniProt P51813)
T2 sequence (P51813 1-675): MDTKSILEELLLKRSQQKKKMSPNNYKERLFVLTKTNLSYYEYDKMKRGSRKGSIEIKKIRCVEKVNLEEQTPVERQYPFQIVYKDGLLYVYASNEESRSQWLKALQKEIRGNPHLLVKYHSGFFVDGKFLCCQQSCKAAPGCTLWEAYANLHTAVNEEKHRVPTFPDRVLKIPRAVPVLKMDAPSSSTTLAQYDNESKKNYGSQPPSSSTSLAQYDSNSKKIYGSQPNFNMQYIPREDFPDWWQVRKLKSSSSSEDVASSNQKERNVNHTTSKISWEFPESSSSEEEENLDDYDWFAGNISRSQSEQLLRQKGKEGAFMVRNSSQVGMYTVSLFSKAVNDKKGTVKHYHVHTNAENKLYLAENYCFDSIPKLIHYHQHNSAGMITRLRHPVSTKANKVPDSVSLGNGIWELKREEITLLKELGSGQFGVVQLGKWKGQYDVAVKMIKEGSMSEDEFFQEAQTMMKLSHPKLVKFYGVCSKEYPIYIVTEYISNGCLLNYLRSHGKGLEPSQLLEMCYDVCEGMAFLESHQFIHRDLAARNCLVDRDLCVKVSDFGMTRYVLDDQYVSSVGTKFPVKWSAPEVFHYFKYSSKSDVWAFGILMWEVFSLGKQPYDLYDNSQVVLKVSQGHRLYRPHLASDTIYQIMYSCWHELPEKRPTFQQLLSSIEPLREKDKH

Erk3 = Erk3 (Homo sapiens, UniProt Q16659)
Erk3, sequence (Q16659 whole entry): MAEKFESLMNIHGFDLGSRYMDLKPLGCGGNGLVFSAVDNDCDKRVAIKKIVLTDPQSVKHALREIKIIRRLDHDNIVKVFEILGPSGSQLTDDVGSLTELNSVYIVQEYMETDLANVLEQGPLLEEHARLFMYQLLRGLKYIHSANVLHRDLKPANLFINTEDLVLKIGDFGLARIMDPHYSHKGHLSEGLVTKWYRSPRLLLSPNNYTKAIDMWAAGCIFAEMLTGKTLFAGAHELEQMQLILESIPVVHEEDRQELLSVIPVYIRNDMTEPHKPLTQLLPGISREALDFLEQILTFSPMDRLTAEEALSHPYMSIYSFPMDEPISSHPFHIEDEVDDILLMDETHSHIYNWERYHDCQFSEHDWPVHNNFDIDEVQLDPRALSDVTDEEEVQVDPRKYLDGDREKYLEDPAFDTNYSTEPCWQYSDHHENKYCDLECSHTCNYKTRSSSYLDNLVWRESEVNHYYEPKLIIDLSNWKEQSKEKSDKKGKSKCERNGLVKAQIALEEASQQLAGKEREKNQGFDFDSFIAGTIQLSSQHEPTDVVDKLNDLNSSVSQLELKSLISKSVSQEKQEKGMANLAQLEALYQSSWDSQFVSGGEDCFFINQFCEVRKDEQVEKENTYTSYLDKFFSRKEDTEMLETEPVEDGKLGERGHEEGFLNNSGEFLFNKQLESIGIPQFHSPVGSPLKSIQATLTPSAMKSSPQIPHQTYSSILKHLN

MAP3K5 = biological target: T3, MAP3K5 (Homo sapiens, UniProt Q99683)
T3 sequence (Q99683 1-1374): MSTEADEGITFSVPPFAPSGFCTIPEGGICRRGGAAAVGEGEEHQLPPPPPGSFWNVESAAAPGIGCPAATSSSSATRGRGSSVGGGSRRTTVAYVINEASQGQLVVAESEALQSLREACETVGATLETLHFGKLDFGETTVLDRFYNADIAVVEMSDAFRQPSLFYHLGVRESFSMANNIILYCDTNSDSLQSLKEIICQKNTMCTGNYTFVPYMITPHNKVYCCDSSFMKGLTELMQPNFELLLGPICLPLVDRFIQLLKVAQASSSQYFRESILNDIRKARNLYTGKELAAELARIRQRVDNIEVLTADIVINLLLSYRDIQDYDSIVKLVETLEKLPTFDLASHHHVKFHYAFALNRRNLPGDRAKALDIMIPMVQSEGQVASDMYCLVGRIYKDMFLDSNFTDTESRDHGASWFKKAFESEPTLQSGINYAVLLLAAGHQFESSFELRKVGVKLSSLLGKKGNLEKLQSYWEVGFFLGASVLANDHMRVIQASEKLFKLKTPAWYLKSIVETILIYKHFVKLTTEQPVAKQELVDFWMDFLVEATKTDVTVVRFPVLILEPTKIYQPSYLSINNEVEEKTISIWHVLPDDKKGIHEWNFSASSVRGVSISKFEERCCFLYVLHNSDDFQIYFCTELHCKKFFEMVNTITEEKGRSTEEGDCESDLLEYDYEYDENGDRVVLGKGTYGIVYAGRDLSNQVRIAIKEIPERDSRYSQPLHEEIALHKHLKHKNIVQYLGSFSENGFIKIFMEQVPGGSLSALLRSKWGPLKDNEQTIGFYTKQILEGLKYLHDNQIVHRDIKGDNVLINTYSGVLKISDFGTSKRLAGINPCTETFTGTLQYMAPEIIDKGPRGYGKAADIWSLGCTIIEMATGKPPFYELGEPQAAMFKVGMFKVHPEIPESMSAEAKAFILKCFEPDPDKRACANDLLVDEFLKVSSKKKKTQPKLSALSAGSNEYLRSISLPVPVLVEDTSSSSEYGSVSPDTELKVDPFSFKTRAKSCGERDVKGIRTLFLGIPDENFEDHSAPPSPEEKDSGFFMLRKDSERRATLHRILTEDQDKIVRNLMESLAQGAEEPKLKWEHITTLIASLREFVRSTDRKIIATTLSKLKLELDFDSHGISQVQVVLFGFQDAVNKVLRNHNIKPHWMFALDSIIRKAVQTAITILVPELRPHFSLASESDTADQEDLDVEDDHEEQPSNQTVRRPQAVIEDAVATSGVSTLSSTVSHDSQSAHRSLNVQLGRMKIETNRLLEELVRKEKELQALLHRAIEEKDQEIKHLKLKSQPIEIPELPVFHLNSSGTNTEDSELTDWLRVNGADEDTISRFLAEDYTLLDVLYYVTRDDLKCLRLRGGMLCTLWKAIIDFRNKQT

SMILES: Cc1cccc(-c2ccc(-c3cc4cnc(Nc5ccc(F)c(CO)c5)nc4n(CCCCN)c3=O)c(Cl)c2)n1 [compound 33, 8-(4-Aminobutyl)-6-(2-chloro-4-(6-methylpyridin-2-yl)phenyl)-2-((4-fluoro-3-(hydroxymethyl)phenyl)amino)pyrido[2,3-d]pyrimidin-7(8H)-one]
- dTm 33 (MAP2K4): 10.0 °C
- dTm 33 (PIM1): 3.3 °C
- dTm 33 (FLT1): 4.9 °C
- dTm 33 (BRD4): -3.7 °C
- dTm 33 (CHK2): 10.4 °C
- dTm 33 (BMX): 7.1 °C
- dTm 33 (Erk3): 0.9 °C
- dTm 33 (MAP3K5): 14.1 °C

SMILES: COc1ccc(O)c(Nc2ncc3cc(-c4ccc(-c5cccc(C)n5)cc4Cl)c(=O)n(CCCCN)c3n2)c1 [compound 34, 8-(4-Aminobutyl)-6-(2-chloro-4-(6-methylpyridin-2-yl)phenyl)-2-((2-hydroxy-5-methoxy-phenyl)amino)pyrido[2,3-d]pyrimidin-7(8H)-one]
- dTm 34 (MAP2K4): 8.0 °C
- dTm 34 (PIM1): 2.7 °C
- dTm 34 (FLT1): 3.2 °C
- dTm 34 (BRD4): -1.8 °C
- dTm 34 (CHK2): 6.4 °C
- dTm 34 (BMX): 4.1 °C
- dTm 34 (Erk3): 0.7 °C
- dTm 34 (MAP3K5): 10.3 °C

SMILES: COc1cc(N2CCOCC2)ccc1Nc1ncc2cc(-c3ccc(-c4cccc(C)n4)cc3Cl)c(=O)n(CCCCN)c2n1 [compound 35, 8-(4-Aminobutyl)-6-(2-chloro-4-(6-methylpyridin-2-yl)phenyl)-2-((2-methoxy-4-morpholino-phenyl)amino)pyrido[2,3-d]pyrimidin-7(8H)-one]
- dTm 35 (MAP2K4): 7.6 °C
- dTm 35 (PIM1): -0.9 °C
- dTm 35 (FLT1): 5.6 °C
- dTm 35 (BRD4): -3.6 °C
- dTm 35 (CHK2): 13.0 °C
- dTm 35 (BMX): 4.4 °C
- dTm 35 (Erk3): 0.6 °C
- dTm 35 (MAP3K5): 12.2 °C

SMILES: COc1cc(N2CCN(C)CC2)ccc1Nc1ncc2cc(-c3ccc(-c4cccc(C)n4)cc3Cl)c(=O)n(CCCCN)c2n1 [compound 36, 8-(4-Aminobutyl)-6-(2-chloro-4-(6-methylpyridin-2-yl)phenyl)-2-((2-methoxy-4-(4-methylpiperazin-1-yl)phenyl)amino)pyrido[2,3-d]pyrimidin-7(8H)-one]
- dTm 36 (MAP2K4): 6.9 °C
- dTm 36 (PIM1): -0.1 °C
- dTm 36 (FLT1): 4.4 °C
- dTm 36 (BRD4): -3.5 °C
- dTm 36 (CHK2): 12.6 °C
- dTm 36 (BMX): 3.3 °C
- dTm 36 (Erk3): 0.5 °C
- dTm 36 (MAP3K5): 10.1 °C

— article doi:10.1101/2023.11.24.568596v1 (biorxiv, 2023)
